Where two headings read alike, the source gives them in different places. Where a SMILES comes first, the peptide text is derived from it.
Key:
Test in all cases: biochemical
Type in all cases: binding
HLA-DRB1*0401 = biological target: T1, HLA-DRB1*0401 (Homo sapiens, UniProt P01903+P01911, A100K/A169T/F76Y/I96L/K127E/L162R/M171V/N62H/P40V/Q125Y/R42H/S133A/S149N/S66Y/V115G/V209L/W38E); conditions: binding inhibition assay; NB = non-binder (no dose-dependent inhibition); read-out: DRB1*0401 IC50
T1 construct: purchased
Protocol: (§1) The binding assay conducted by EpiVax yields an indirect measure of peptide-MHC affinity as it utilizes a competition assay format per the methodology described in Steere et al. ([35]). […] Post incubation, the mixtures are moved to a 96-well plate coated with anti-HLA-DR antibody to capture HLA-peptide complexes. Time-resolved fluorescence measurement of the bound labeled reference peptide complex present in each mixture is detected with a europium-linked probe via fluorescent spectrophotometry using a SpectraMax M5 system. HLA binding affinity of each test peptide is expressed as the percent inhibition of reference peptide binding. Percent inhibition values (across the test peptide titration range) are used to calculate the half maximal inhibitory concentration (IC50) of each test peptide. For these studies, test peptides were assessed using a range of final concentrations from 100,000 nM to 100 nM. The panel of commercially-available HLA-DRB1 allele monomers used includes: *0101, *0301, *0401, *0701, *0801, *1101, *1301 and *1501. EpiVax established HLA-DRB1 binding affinity cutoffs were used to rank the IC50 values.
(§2) In vitro HLA binding assays (step 2 of workflow shown in Figure 1 ) were carried out with the synthesized peptides to verify the EpiMatrix outputs and provide a measure of accuracy for comparing in silico-predicted HLA-DRB1 allele binding to laboratory assessments of HLA-DRB1 allele binding. These assessments were conducted using a competition assay format whereby IC50 values were calculated based on the ability of the test peptide to compete with a labeled, high binding affinity reference peptide for HLA-DRB1 molecule binding. Sequences for the high affinity reference peptides and the negative control peptide, known not to bind any of the HLA-DRB1 molecules, are provided in Table S18 .

HLA-DRB1*0101 = biological target: T2, HLA-DRB1*0101 (Homo sapiens, UniProt P01903+P01911, A100R/D57E/F55L/F60I/F76Y/I96L/L162R/M171V/P40L/Q125E/R42F/V115G/Y59C); conditions: binding inhibition assay; NB = non-binder (no dose-dependent inhibition); read-out: DRB1*0101 IC50
T2 construct: purchased
Protocol: as §1, §2

HLA-DRB1*1501 = biological target: T3, HLA-DRB1*1501 (Homo sapiens, UniProt P01903+P01911); conditions: binding inhibition assay; NB = non-binder (no dose-dependent inhibition); read-out: DRB1*1501 IC50
T3 construct: purchased
Protocol: as §1, §2

HLA-DRB1*1301 = HLA-DRB1*1301 (Homo sapiens, UniProt P01903+P01911, A100E/A169T/K41T/L162R/M171V/P40S/Q125H/Q178H/Q39Y/Q99D/R42S/S66N/T262R/W38E/Y61H); conditions: binding inhibition assay; NB = non-binder (no dose-dependent inhibition); read-out: DRB1*1301 IC50
Protocol: as §1, §2

HLA-DRB1*1101 = HLA-DRB1*1101 (Homo sapiens, UniProt P01903+P01911, A100R/A169T/A87E/I96F/K41T/L162R/M171V/P40S/Q125H/Q178H/Q39Y/Q99D/R42S/S66Y/T262R/V115G/W38E); conditions: binding inhibition assay; NB = non-binder (no dose-dependent inhibition); read-out: DRB1*1101 IC50
Protocol: as §1, §2

HLA-DRB1*0801 = HLA-DRB1*0801 (Homo sapiens, UniProt P01903+P01911, A100R/A103L/A169T/D86S/F76Y/H45Y/I96F/K41T/L162R/M171V/P40S/Q125H/Q178H/Q39Y/Q99D/R218S/R42G/S66Y/V115G/W38E); conditions: binding inhibition assay; NB = non-binder (no dose-dependent inhibition); read-out: DRB1*0801 IC50
Protocol: as §1, §2

HLA-DRB1*0701 = HLA-DRB1*0701 (Homo sapiens, UniProt P01903+P01911, A100R/A102G/A103Q/D57E/D86V/E43K/F76Y/K127E/L162R/M171V/P40G/Q125H/Q99D/R33Q/R42Y/R54Q/S133A/S66F/T210M/V115G/Y107V/Y59L/Y89S); conditions: binding inhibition assay; NB = non-binder (no dose-dependent inhibition); read-out: DRB1*0701 IC50
Protocol: as §1, §2

HLA-A*0101 = HLA-A*0101 (Homo sapiens, UniProt P04439, A114D/A174V/A182V/D101N/D185E/E176A/E190D/L180R/Q94H/R68K/S129P/T187R/V100A/V91M/W191G)
Protocol: A cell-free class I HLA binding assay that allows for in vitro quantification of peptide-HLA binding affinity in a competition format was used. In this assay, a fluorescently labeled, high binding, control peptide is loaded onto 384-well ½-area plates along with unlabeled experimental peptides. To remove endogenous peptides and render the HLA A and B molecules receptive to binding, HLA is heated at 53°C for 15 minutes and immediately added to the assay. The mixture is then allowed to stand for three days. Once the mixture has reached steady equilibrium (at 72 hours), displacement of the high binding control peptide is measured through fluorescence polarization. Binding of experimental peptides is expressed as the percent inhibition of the labeled control peptide (experimental fluorescence / control fluorescence, multiplied by 100). The percent inhibition values for each experimental peptide (across a range of molar concentrations) are used to calculate the concentration which inhibits 50% of the labeled control peptide’s specific binding. This value is referred to as the peptide’s IC50.

[1] = allele A*0101, fluorescence polarization competition, read-out: IC50 (nM), in vitro HLA binding affinity
[2] = allele A*0101, fluorescence polarization competition

Chain of HLA-DRB1*1101 (P01903 26-254 limits assumed, other chains not shown): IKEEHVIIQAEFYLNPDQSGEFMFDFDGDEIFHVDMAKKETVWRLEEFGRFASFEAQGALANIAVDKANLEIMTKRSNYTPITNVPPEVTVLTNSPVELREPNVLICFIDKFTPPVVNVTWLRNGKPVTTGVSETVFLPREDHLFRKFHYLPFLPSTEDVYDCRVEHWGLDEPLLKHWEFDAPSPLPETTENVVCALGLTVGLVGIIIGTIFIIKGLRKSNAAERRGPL

CC[C@H](C)[C@H](NC(=O)[C@H](CC(=O)O)NC(=O)[C@H](CC(C)C)NC(=O)[C@H](CCCCN)NC(=O)[C@H](CC(N)=O)NC(=O)[C@H](CCC(=O)O)NC(C)=O)C(=O)N[C@@H](CC(C)C)C(=O)N[C@@H](CC(N)=O)C(=O)N[C@@H](CC(N)=O)C(=O)N[C@@H](CO)C(=O)N[C@@H](CCCCN)C(=O)N[C@@H](Cc1ccccc1)C(=O)N[C@@H](CC(N)=O)C(=O)N[C@@H](CCCCN)C(=O)N[C@@H](CCCNC(=N)N)C(=O)N[C@@H](Cc1c[nH]c2ccccc12)C(=O)N[C@@H](CCCCN)C(N)=O [EBA175_002] (Ac-ENKLDILNNSKFNKRWK-NH2)
IC50 (HLA-DRB1*0401): > 100 µM
IC50 (HLA-DRB1*0101): 11.9 µM
IC50 (HLA-DRB1*1501): 13.9 µM
IC50 (HLA-DRB1*1301): 14.2 µM

CC[C@H](C)[C@H](NC(=O)[C@H](Cc1ccccc1)NC(=O)[C@H](Cc1c[nH]cn1)NC(=O)[C@H](CC(=O)O)NC(C)=O)C(=O)N[C@@H](CCC(=O)O)C(=O)N[C@@H](C)C(=O)N[C@@H](CO)C(=O)N[C@@H](CCCCN)C(=O)N[C@@H](CCCCN)C(=O)N[C@@H](CCC(=O)O)C(=O)N[C@@H](CO)C(=O)N[C@@H](CCC(N)=O)C(=O)N[C@@H](CC(C)C)C(=O)N[C@@H](CC(C)C)C(N)=O [EBA175_006] (Ac-DHFIEASKKESQLL-NH2)
IC50 (HLA-DRB1*0401): > 100 µM
IC50 (HLA-DRB1*1101): 2.87 µM
IC50 (HLA-DRB1*0101): 6.63 µM
IC50 (HLA-DRB1*0801): 1.76 µM
IC50 (HLA-DRB1*1301): 74.6 µM

CSCC[C@H](NC(=O)[C@@H](NC(=O)[C@H](Cc1c[nH]cn1)NC(=O)[C@H](Cc1ccccc1)NC(=O)CNC(=O)[C@H](Cc1c[nH]cn1)NC(=O)[C@H](CCCCN)NC(C)=O)[C@@H](C)O)C(=O)N[C@@H](CC(N)=O)C(=O)N[C@@H](CC(N)=O)C(=O)N[C@@H](CC(C)C)C(=O)N[C@@H](Cc1c[nH]cn1)C(=O)NCC(=O)N[C@@H](CC(=O)O)C(=O)NCC(=O)N[C@H](C(=O)N[C@@H](CO)C(=O)N[C@@H](CCC(=O)O)C(N)=O)C(C)C [EBA175_016] (Ac-KHGFHTMNNLHGDGVSE-NH2)
IC50 (HLA-DRB1*0401): 0.458 µM
IC50 (HLA-DRB1*1101): 8.62 µM
IC50 (HLA-DRB1*0101): 0.16 µM
IC50 (HLA-DRB1*1501): 79 µM
IC50 (HLA-DRB1*1301): > 100 µM

CC[C@H](C)[C@H](NC(=O)[C@H](Cc1ccc(O)cc1)NC(=O)[C@@H](NC(=O)[C@H](CO)NC(=O)[C@H](Cc1c[nH]cn1)NC(C)=O)[C@@H](C)O)C(=O)N[C@@H](CCCCN)C(=O)N[C@@H](CO)C(=O)N[C@@H](Cc1ccc(O)cc1)C(=O)N[C@@H](CC(C)C)C(=O)N[C@@H](CC(N)=O)C(=O)N[C@H](C(=O)N[C@@H](CC(N)=O)C(=O)N[C@H](C(=O)N[C@@H](CC(N)=O)C(=O)N[C@@H](CC(=O)O)C(=O)NCC(=O)N[C@@H](CC(C)C)C(=O)N[C@@H](CCCCN)C(=O)N[C@@H](Cc1ccc(O)cc1)C(N)=O)C(C)C)[C@@H](C)O [RH5_003] (Ac-HSTYIKSYLNTNVNDGLKY-NH2)
IC50 (HLA-DRB1*0401): 7.45 µM
IC50 (HLA-DRB1*0701): 58.5 µM
IC50 (HLA-DRB1*1101): 96.5 µM
IC50 (HLA-DRB1*0101): 0.282 µM
IC50 (HLA-DRB1*1501): 0.004 µM
IC50 (HLA-DRB1*1301): 20.1 µM

C[C@@H](O)[C@H](NC(=O)[C@@H](N)CC(=O)O)C(=O)N[C@@H](CC(=O)O)C(=O)N[C@@H](CO)C(=O)N[C@@H](CC(N)=O)C(=O)N[C@@H](Cc1c[nH]cn1)C(=O)N[C@H](C(=O)N1CCC[C@H]1C(=O)N[C@@H](CO)C(=O)N[C@@H](CC(N)=O)C(=O)O)[C@@H](C)O [RH5_280] (H-DTDSNHTPSN-OH)
IC50 (HLA-A*0101): 5880 nM

CC[C@H](C)[C@H](NC(=O)CNC(=O)[C@H](CC(N)=O)NC(=O)[C@@H](NC(=O)[C@@H](N)CC(N)=O)[C@@H](C)O)C(=O)N[C@@H](CCCNC(=N)N)C(=O)N[C@@H](Cc1ccc(O)cc1)C(=O)N[C@@H](Cc1c[nH]cn1)C(=O)N[C@@H](Cc1ccc(O)cc1)C(=O)O [RH5_352] (H-NTNGIRYHY-OH)
IC50 (HLA-A*0101; [1]): 4380 nM

CC[C@H](C)[C@H](NC(=O)[C@H](Cc1ccccc1)NC(=O)[C@H](CCCCN)NC(=O)[C@@H](NC(=O)[C@@H](NC(=O)[C@H](CC(=O)O)NC(=O)[C@@H](NC(=O)[C@@H](N)Cc1ccc(O)cc1)[C@@H](C)CC)[C@@H](C)O)[C@@H](C)CC)C(=O)N[C@@H](Cc1c[nH]cn1)C(=O)N[C@@H](CCCCN)C(=O)O [RH5_406] (H-YIDTIKFIHK-OH)
IC50 (HLA-A*0101; [1]): 1510 nM

CC[C@H](C)[C@H](NC(=O)[C@@H]1CCCN1C(=O)[C@@H](NC(=O)[C@H](CC(=O)O)NC(=O)[C@H](CC(N)=O)NC(=O)[C@@H](N)Cc1ccccc1)C(C)C)C(=O)N[C@@H](CCCCN)C(=O)N[C@@H](CCSC)C(=O)N[C@@H](CCC(=O)O)C(=O)N[C@@H](Cc1ccc(O)cc1)C(=O)O [RH5_505] (H-FNDVPIKMEY-OH)
IC50 (HLA-A*0101; [1]): 498 nM

CC(=O)N[C@@H](CCC(=O)O)C(=O)N[C@@H](CCC(=O)O)C(=O)NCC(=O)N[C@@H](Cc1ccc(O)cc1)C(=O)N[C@@H](CCCCN)C(=O)N[C@@H](CC(N)=O)C(=O)N[C@H](C(=O)N[C@@H](CCCCN)C(=O)NCC(=O)N[C@@H](CCCCN)C(=O)N[C@@H](CS)C(=O)N[C@H](C(=O)N1CCC[C@H]1C(=O)N[C@@H](CC(=O)O)C(=O)N[C@@H](CC(N)=O)C(=O)N[C@@H](CCCCN)C(N)=O)C(C)C)C(C)C [RIPR_015] (Ac-EEGYKNVKGKCVPDNK-NH2)
IC50 (HLA-DRB1*0401): > 100 µM
IC50 (HLA-DRB1*0701): 9.28 µM
IC50 (HLA-DRB1*1101): 32 µM
IC50 (HLA-DRB1*0101): 1.81 µM
IC50 (HLA-DRB1*1501): > 100 µM
IC50 (HLA-DRB1*1301): > 100 µM

CC(C)C[C@H](NC(=O)[C@H](Cc1ccc(O)cc1)NC(=O)[C@H](C)NC(=O)[C@H](Cc1ccc(O)cc1)NC(=O)[C@H](CC(=O)O)NC(=O)[C@H](CC(N)=O)NC(=O)[C@@H](N)CCC(=O)O)C(=O)N[C@@H](CC(N)=O)C(=O)N[C@@H](CCCCN)C(=O)N[C@@H](Cc1ccc(O)cc1)C(=O)O [RIPR_0059] (H-ENDYAYLNKY-OH)
IC50 (HLA-A*0101; [1]): 42200 nM

DSCVPNTNEY [RIPR_0976]
IC50 (nM), in vitro HLA binding affinity (HLA-A*0101; [2]): Non-binder

LSDTLQLHED [EBA175_0881]
IC50 (nM) (HLA-A*0101; allele A*0101, cell-free competition, fluorescence polarization at 72 hours, Non-binder = no dose-dependent inhibition): Non-binder

NLFEQLSCY [RH5_338]
IC50 (nM), in vitro HLA binding affinity (HLA-A*0101; [2]): Non-Binder

STDPHTNSNN [RIPR_0545]
IC50 (nM), in vitro HLA binding affinity (HLA-A*0101; [2]): Non-binder

— PMC8294059, “Identification and Immune Assessment of T Cell Epitopes in Five Plasmodium falciparum Blood Stage Antigens to Facilitate Vaccine Candidate Selection and Optimization” (Frontiers in Immunology, 2021)
